The text below walks through data of patent US20260285857A1, “BICYCLIC AND HETEROCYCLIC AMIDE COMPOUNDS” (priority 2024, published 2026).

The structures appear in SMILES notation.

The first assay concerns immunoglobulin light chain protein WIL-FL T46L. Nature of the assay: Differential scanning fluorimetry (thermal shift) assay. Type of assay: binding. The note with it: Table A; temperature shift [Tm]compound-[Tm]vehicle; recombinant WIL-FL T46L.
On to `Cc1cc(N2CC(C)(C)C(C)(c3ccccc3)C2)cn2nc(C(=O)N3C[C@@H]4CN(c5cccc(C(=O)O)n5)C[C@@H]4C3)nc12` (stereo partly drawn) [Compound 298], for which the DSF entry is “** (>0.5-1 °C =**)”.
Regarding `CNC(=O)c1nc2c(C(C)O)cc(N3CC[C@](C)(c4ccccc4)C3)cn2n1` (stereo partly drawn) [Compound 336], the DSF entry was “***** (>2.5° C.=*****)”.
The same measure, in the same setting: under `Cc1cc(N2CC[C@](C)(c3ccccc3)C2)cn2nc(C(=O)N3CC4C(C3)C4C(=O)O)nc12` (stereo partly drawn) [Compound 158] stands “***** (>2.5° C.=*****)”; under `Cc1cc(N2CC[C@](C)(c3ccccc3)C2)cn2nc(C(=O)NC3CC4(C3)CC(N3CC5C(C3)C5C(=O)O)C4)nc12` (stereo partly drawn) [Compound 364], “***** (>2.5° C.=*****)”.
Regarding `Cc1cc(N2CC[C@](C)(c3ccccc3)C2)cn2nc(C(=O)NC3CC4(C3)CC(N3CC5C(C3)C5c3nn[nH]n3)C4)nc12` (stereo partly drawn) [Compound 368], the DSF result is given as “***** (>2.5° C.=*****)”.
On the same count and under the same terms, the value for `CCC1(c2ccccc2)CN(c2cc(CO)c3nc(C(=O)NC4CCN(c5cccc(C(=O)O)n5)CC4)nn3c2)C1` [Compound 392] was “***** (>2.5° C.=*****)”; that for `COC(=O)C12CCC(NC(=O)c3nc4c(C)cc(N5CC[C@](C)(c6ccccc6)C5)cn4n3)(C1)C2` [Compound 175] was “***** (>2.5° C.=*****)”; that for `Cc1cc(N2CC[C@](C)(c3ccccc3)C2)cn2nc(C(=O)N3CCC4(CCN(c5ncno5)C4)C3)nc12` (stereo partly drawn) [Compound 253] was “***** (>2.5° C.=*****)”.
Regarding `Cc1cc(N2CC[C@](C)(c3ccccc3)C2)cn2nc(C34CC(CO3)C4C(=O)NCC(C)(C)O)nc12` (stereo partly drawn) [Compound 71], the DSF result is on record as “***** (>2.5° C.=*****)”.
The same measure, in the same setting: the value for `Cc1cc(N2CC[C@](C)(c3ccccc3)C2)cn2nc(C34CC(=O)NC(N)(CO3)C4)nc12` (stereo partly drawn) [Compound 47] was “***** (>2.5° C.=*****)”; that for `Cc1cc(N2CC[C@](C)(c3ccccc3)C2)cn2nc(C34COC(C3)C4C(N)=O)nc12` (stereo partly drawn) [Compound 69] was “**** (>1.5-2.5° C.=****)”; that for `Cc1cc(OCC2(c3ccccc3)CC2)cn2nc(C34CC(N)(CO3)C4)nc12` [Compound 57] was “***** (>2.5° C.=*****)”.
With `Cc1cc(N2CC[C@](C)(c3ccccc3)C2)cn2nc(C34CC(CN)(CO3)C4)nc12` [Compound 58], the DSF result was “***** (>2.5° C.=*****)”.
On the same count and under the same terms, under `Cc1cc(N2CC[C@](C)(c3ccccc3)C2)cn2nc(C(=O)NC3CCN(c4cccc(C(=O)O)n4)CC3)nc12` [Compound 276] stands “***** (>2.5° C.=*****)”; under `CNC(=O)c1nc2c(C)cc(OC3CCC3(C)c3ccccc3)cn2n1` (stereo not drawn) [Compound 16, N,8-dimethyl-6-(2-methyl-2-phenylcyclobutoxy)-[1,2,4]triazolo[1,5-a]pyridine-2-carboxamide], “* (0-0.5° C.=*)”.
`Cc1cc(N2CC[C@](C)(c3ccccc3)C2)cn2nc(C(=O)N3CC4=C(C3)CN(c3cccc(C(=O)O)n3)C4)nc12` [Compound 231]: the DSF result is reported as “***** (>2.5° C.=*****)”.
Take `Cc1cc(N2CC[C@](C)(c3ccccc3)C2)cn2nc(C(=O)NCC34COC(C(=O)O)(C3)C4)nc12` [Compound 209]: the DSF result is reported as “***** (>2.5° C.=*****)”.
With `CCS(=O)(=O)Nc1n[nH]c(C2C3COC2(c2nc4c(C)cc(N5CC[C@](C)(c6ccccc6)C5)cn4n2)C3)n1` (stereo partly drawn) [Compound 93], the DSF result is reported as “***** (>2.5° C.=*****)”.
In the case of `CNC(=O)c1nc2c(C(C)C)cc(N3CC[C@](C)(c4ccccc4)C3)cn2n1` [Compound 337], the DSF entry is “**** (>1.5-2.5° C.=****)”.
As for `Cc1cc(N2CC[C@](C)(c3ccccc3)C2)cn2nc(C34CC(CO3)C4CNc3cccc(C(=O)O)n3)nc12` (stereo partly drawn) [Compound 8, 6-[[1-[8-methyl-6-[(3R)-3-methyl-3-phenyl-pyrrolidin-1-yl]-[1,2,4]triazolo[1,5-a]pyridin-2-yl]-2-oxabicyclo[2.1.1]hexan-5-yl]methylamino]pyridine-2-carboxylic acid], the DSF result is listed as “***** (>2.5° C.=*****)”.
The same measure, in the same setting: the value for `Cc1cc(N2CC[C@](C)(c3ccccc3)C2)cn2nc(C(=O)N3CCC4(CCN(C5CCCC(C(=O)O)C5)C4)C3)nc12` (stereo partly drawn) [Compound 289] was “***** (>2.5° C.=*****)”.
As for `Cc1cc(OC[C@H](C)c2ccccc2)cn2nc(C(=O)NC3CCN(c4ccnc(C(=O)O)c4)C3)nc12` (stereo partly drawn) [Compound 321], the DSF result was “***** (>2.5° C.=*****)”.
As to `Cc1cc(N2CC[C@](C)(c3ccccc3)C2)cn2nc(C(=O)N3CCn4nc(-c5cccc(C(=O)O)n5)nc4C3)nc12` [Compound 404], the DSF entry was “***** (>2.5° C.=*****)”.
The same measure, in the same setting: the value for `Cc1cc(N2CC[C@](C)(c3ccccc3)C2)cn2nc(C(=O)NC3CCN(c4cccnc4C(=O)O)CC3)nc12` [Compound 265] was “***** (>2.5° C.=*****)”; that for `Cc1cc(N2CC[C@](C)(c3ccccc3)C2)cn2nc(C(=O)N3CC[C@@](C)(O)C3)nc12` [Compound 159] was “***** (>2.5° C.=*****)”; that for `Cc1cc(N2CC[C@](C)(c3ccccc3)C2)cn2nc(C(=O)NC3CC4(C3)OCC4N3CCC(C(=O)O)CC3)nc12` (stereo partly drawn) [Compound 359] was “***** (>2.5° C.=*****)”.
With `Cc1cc(N2CC[C@](C)(c3ccccc3)C2)cn2nc(C(=O)N3C[C@@H]4CN(c5cccc(C(=O)O)n5)C[C@@H]4C3)nc12` [Compound 194], the DSF result is recorded as “***** (>2.5° C.=*****)”.

Still in this assay, the particulars now being: Table B; temperature shift [Tm]compound-[Tm]vehicle; recombinant WIL-FL T46L.
On to `Cc1cc(N2CC3(CCC3c3cccc(F)c3)C2)cn2nc(C(=O)N3CC[C@@]4(CCN(c5cccc(C(=O)O)n5)C4)C3)nc12` (stereo partly drawn) [Compound 738], for which the DSF entry is recorded as “***** (>2.5° C.=*****)”.
Still for that read-out and setting: the value for `CCC(=O)NCC12COC(c3nc4c(C)cc(N5CC[C@](C)(c6ccccc6)C5)cn4n3)(C1)C2` [Compound 462] was “***** (>2.5° C.=*****)”; that for `Cc1cc(N2CC[C@](C)(c3ccccc3)C2)cn2nc(C34CC(CO3)C4c3nc(N)nn3C(=O)C3CC(C)(C(=O)O)C3)nc12` (stereo partly drawn) [Compound 556] was “***** (>2.5° C.=*****)”.
Consider `COC(C)(CC(=O)N1CC2(CC(NC(=O)c3nc4c(C)cc(N5CC[C@](C)(c6ccccc6)C5)cn4n3)C2)C1)C(=O)O` (stereo partly drawn) [Compound 679], for which the DSF entry is recorded as “***** (>2.5° C.=*****)”.
`Cc1cc(N2CC[C@](C)(c3ccccc3)C2)cn2nc(C(=O)NCC3(O)CN(c4cccc(C(=O)O)n4)C3)nc12` [Compound 613]: the DSF result is on record as “***** (>2.5° C.=*****)”.
Consider `C[C@]1(c2ccccc2)CCN(c2cc(CO)c3nc(C45CC(CO4)C5CO)nn3c2)C1` (stereo partly drawn) [Compound 489], for which the DSF entry is reported as “***** (>2.5° C.=*****)”.
As to `Cc1cc(N2CC[C@](C)(c3ccccc3)C2)cn2nc(C(=O)N3CC[C@@]4(CCN(C5CCCC(C(=O)O)C5)C4)C3)nc12` (stereo partly drawn) [Compound 720], the DSF result was “***** (>2.5° C.=*****)”.
Turning to `Cc1cc(N2CC[C@](C)(c3ccccc3)C2)cn2nc(C(=O)NC3CC4(CCN(C(=O)CC(C)(O)C(=O)O)C4)C3)nc12` (stereo partly drawn) [Compound 673, 2-hydroxy-2-methyl-4-(2-(8-methyl-6-((R)-3-methyl-3-phenylpyrrolidin-1-yl)-[1,2,4]triazolo[1,5-a]pyridine-2-carboxamido)-6-azaspiro[3.4]octan-6-yl)-4-oxobutanoic acid], the DSF entry is given as “***** (>2.5° C.=*****)”.
Turning to `Cc1cc(N2CC[C@](C)(c3ccccc3)C2)cn2nc(C34CC(CO3)C4N3CC4(CCC4)NC3=O)nc12` (stereo partly drawn) [Compound 532, 7-(1-(8-methyl-6-((R)-3-methyl-3-phenylpyrrolidin-1-yl)-[1,2,4]triazolo[1,5-a]pyridin-2-yl)-2-oxabicyclo[2.1.1]hexan-5-yl)-5,7-diazaspiro[3.4]octan-6-one], the DSF result was “***** (>2.5° C.=*****)”.
As to `Cc1cc(N2CC[C@](C)(c3ccccc3)C2)cn2nc([C@]34C[C@H](CO3)[C@@H]4N3CC4(CN(c5cccc(C(=O)O)n5)C4)NC3=O)nc12` [Compound 520], the DSF result is listed as “***** (>2.5° C.=*****)”.
Turning to `COC(C)(CC(=O)N1CC2(C1)CN(C1C3COC1(c1nc4c(C)cc(N5CC[C@](C)(c6ccccc6)C5)cn4n1)C3)C(=O)N2)C(=O)O` (stereo partly drawn) [Compound 518], the DSF result is listed as “***** (>2.5° C.=*****)”.
On the same count and under the same terms, the value for `Cc1cc(N2CC[C@](C)(c3ccccc3)C2)cn2nc(C34CC(C(=O)N[C@@H]5COC[C@H]5O)(CO3)C4)nc12` [Compound 441] was “***** (>2.5° C.=*****)”; that for `Cc1cc(N2CC[C@](C)(c3ccccc3)C2)cn2nc(C(=O)N3CCC4(CCN(c5cncc(C(=O)O)c5)C4)C3)nc12` (stereo partly drawn) [Compound 717] was “***** (>2.5° C.=*****)”; that for `Cc1cc(N2CC[C@](C)(c3ccccc3)C2)cn2nc(C34CC(C(=O)Nc5ccnc(C(=O)O)c5)(CO3)C4)nc12` [Compound 456] was “***** (>2.5° C.=*****)”.
`Cc1cc(N2CC[C@](C)(c3ccccc3)C2)cn2nc(C34CC(CO3)C4c3nc(NC(=O)CC4(C(=O)O)CC4)n[nH]3)nc12` (stereo partly drawn) [Compound 559]: the DSF result was “***** (>2.5° C.=*****)”.
With `Cc1cc(N2CC[C@@](C)(n3ccc(C(F)(F)F)n3)C2)cn2nc(C(=O)NC3COC4(COC4)C3)nc12` (stereo partly drawn) [Compound 593], the DSF result is given as “***** (>2.5° C.=*****)”.
The same measure, in the same setting: the value for `Cc1cc(N2CC[C@](C)(c3ccccc3)C2)cn2nc(C(=O)N3CC[C@@]4(CCN(C(=O)C56CC(C(=O)O)(C5)C6)C4)C3)nc12` [Compound 712] was “***** (>2.5° C.=*****)”; that for `Cc1cc(C(=O)O)cc(N2CC[C@@]3(CCN(C(=O)c4nc5c(C)cc(N6CC[C@](C)(c7ccccc7)C6)cn5n4)C3)C2)n1` [Compound 729, 2-methyl-6-((R)-7-(8-methyl-6-((R)-3-methyl-3-phenylpyrrolidin-1-yl)-[1,2,4]triazolo[1,5-a]pyridine-2-carbonyl)-2,7-diazaspiro[4.4]nonan-2-yl)isonicotinic acid] was “***** (>2.5° C.=*****)”; that for `Cc1cc(N2CC[C@](C)(c3ccccc3)C2)cn2nc(C(=O)NC3CN(c4cccc(C(=O)O)n4)CC34COC4)nc12` (stereo partly drawn) [Compound 646] was “***** (>2.5° C.=*****)”.
With `Cc1cc(N2CC[C@](C)(c3ccccc3)C2)cn2nc(C34CC(CO3)C4N3CC4(CC(CO)C4)NC3=O)nc12` (stereo partly drawn) [Compound 511], the DSF entry is on record as “***** (>2.5° C.=*****)”.
For the molecule `Cc1cc(N2CC[C@](C)(c3ccccc3)C2)cn2nc(C34CC(CO3)C4c3nc(NC(=O)[C@@H]4C[C@H]4C(=O)O)n[nH]3)nc12` (stereo partly drawn) [Compound 557], the DSF entry is “***** (>2.5° C.=*****)”.
